These results are taken from patent US5362728A, “4,5-bridged-2,3,4,5-tetrahydro-1H-3-benzazepine-7-ols and derivatives and compositions and methods employing such compounds” (Schering Corporation, priority 1992, dated 1994).

Structures are written as SMILES. Like-named read-outs stand apart in the source and are kept apart here. A value given as a limit tells only on which side of the number the result lay.

One experiment addresses T1, dopamine D-1 receptor (Rattus norvegicus, UniProt P18901).
T1 construct: Striatal tissue is excised, pooled, and homogenized; from tissue; host or cells: rat striatum, washed membrane homogenate
Nature of the experiment: Competitive inhibition assay, 3H-SCH 23390 binding (D-1), rat striatal tissue. On the set-up: species or system rat (male Sprague-Dawley). From the text: (§1) A methodology for characterization of D-1 and D-2 receptor binding and an interpretation of the data are described by Billard et al., Life Sciences 35, 1885 (1984) in which the binding of the benzazepine (R)-(+)-8-chloro-2,3,4,5-tetrahydro-3-methyl-5-phenyl-1H-3-benzazepin-7-olhemimaleate (SCH 23390) to the dopamine D-1 receptor is characterized. A selectivity for D-1 receptor binding as compared to D-2 receptor binding .is believed to confer the therapeutic advantage of avoiding troublesome and potentially irreversible neurological side effects associated with D-2 receptor occupancy.
(§2) Tritiated SCH 23390 and tritiated spiperone (a potent D-2 receptor ligand) are obtained as described in the Billard et al. reference supra and serially diluted in 0.05M Tris buffer, pH 7.4, as required. Compounds of this invention are synthesized as disclosed herein and diluted in 0.05M Tris buffer, pH 7.4, as required.
(§3) Male Sprague-Dawley rats (200 to 250 g) from Charles River Breeding Laboratories, Mass. are used to obtain brain tissue. The rats are humanely sacrificed and their brains removed and placed on ice. Striatal tissue is excised, pooled, and homogenized (Brinkman Polytron, 10 sec) in 100 volumes (w/v) of ice cold 50 mM Tds buffer, pH 7.4 (at 25° C.). The homogenate is centrifuged at 20,000 xg for 10 min. The resultant pellet is rehomogenized in Tris buffer and centrifuged again. The final pellet is resuspended in 50 mM Tris buffer pH 7.4 containing 120 mM NaCl, 5 mM KCl, 2 mM CaCl2, and 1 mM MgCl2.
(§4) Polypropylene incubation tubes receive 100 μl of the individual test compounds at vadous concentrations dissolved or suspended in 0.05M Tris, pH 7.4 containing 4 mg/ml methylcellulose, 100 μl of a solution of ^3 H-SCH 23390 in Tris buffer (final reaction mixture concentration=0.3 nM) or 100 μl of a solution of ^3 H-spiperone in Tris buffer (final concentration=0.2 nM) and 800 μl of tissue suspension (ca. 3 mg/assay). Tubes are incubated at 37° C. for 15 minutes and rapidly vacuum filtered through Whatman GF/B filters and rinsed 4 times with 4 ml of ice cold 50 mM Tds buffer, pH 7.4. The filters are transferred to scintillation vials, equilibated with 10 ml of scintillant (Scintosol, Isolab, Inc.) for 16 hours at 25° C. and the radioactivity determined in a liquid scintillation counter, Ki values are determined as described by Billard et al. using the relationship Kj = IC50 /(1+([L]/KD)) wherein IC50 =concentration of test drug necessary to displace 50% of specifically bound ^3 H-Sch 23390, [L]=concentration of radioligand used in the assay, and KD =dissociation constant.

The target in a further experiment is T2, D-2 receptor (Rattus norvegicus, UniProt P61169).
T2 construct: Striatal tissue is excised, pooled, and homogenized; from tissue; host or cells: rat striatum, washed membrane homogenate
Nature of the experiment: Competitive inhibition assay, 3H-spiperone binding (D-2), rat striatal tissue. On the set-up: species or system rat (male Sprague-Dawley).
From the text: as §1, §2, §3, §4

The test system of another experiment is squirrel monkey. Nature of the experiment: Squirrel monkey conditioned avoidance response (CAR) test. It counts as in vivo. As to conditions: Primates, po, read-out: CAR(MED) Sq. Monkey @ 1 hr. From the text: SQUIRREL MONKEY CONDITIONED AVOIDANCE RESPONSE (CAR) TEST
This test is designed to measure the potency of candidate compounds in a primate species.
Male or female squirrel monkeys weighing 800-1200 g housed one per cage are utilized. Initially each monkey is taught to terminate a 3 mA electric shock delivered through the grid floor of the test cage and an overlapping tone by depressing a lever in the cage.
In the second phase of the testing, a ten second tone is turned on prior to the shock component. A lever press during the sounding of the tone terminates the tone and prevents the occurrence of the shock component and is denoted as an "avoidance".
The compound testing is commenced after three consecutive days of re-testing. […] The monkey must achieve at least an 85% correct avoidance before drug testing commences. If this minimal avoidance level is achieved, the next day the monkey is orally dosed or injected with the subject compounds in the appropriate vehicle and the number of avoidances are recorded. An animal is defined as having been "affected" by any drug treatment if there is a 50% loss of avoidance behavior relative to the performance of the animal when only the vehicle is injected. The minimal effective dose (MED) is defined as that dose producing an effect in at least 50% of the animals.
A test may be conducted to determine the effective potency of a compound in accordance with the present invention by comparing a compound of the invention to a known compound, (R)-(+)-8-chloro-2,3,4,5-tetrahydro-3-methyl-5-phenyl-1H-3-benzazepin-7-olhemimaleate, denoted as Compound B (Sch 23390). A compound of the invention administered 60 minutes prior to the test is compared to compound B administered 30 minutes prior to test.

[1] abbreviates: Col. 7, 3H-SCH 23390 0.3 nM, rat striatum, 37° C., 15 min, pH 7.4, read-out: Ki (nM) 3H-Sch23390.
[2] abbreviates: Col. 8, 3H-spiperone 0.2 nM, rat striatum, 37° C., 15 min, pH 7.4, read-out: Ki (nM) 3H-Spip.
Setting [3] is: Col. 9, p.o., 1 hr, minimal effective dose = dose producing an effect in at least 50% of the animals.

T2 sequence (P61169 whole entry): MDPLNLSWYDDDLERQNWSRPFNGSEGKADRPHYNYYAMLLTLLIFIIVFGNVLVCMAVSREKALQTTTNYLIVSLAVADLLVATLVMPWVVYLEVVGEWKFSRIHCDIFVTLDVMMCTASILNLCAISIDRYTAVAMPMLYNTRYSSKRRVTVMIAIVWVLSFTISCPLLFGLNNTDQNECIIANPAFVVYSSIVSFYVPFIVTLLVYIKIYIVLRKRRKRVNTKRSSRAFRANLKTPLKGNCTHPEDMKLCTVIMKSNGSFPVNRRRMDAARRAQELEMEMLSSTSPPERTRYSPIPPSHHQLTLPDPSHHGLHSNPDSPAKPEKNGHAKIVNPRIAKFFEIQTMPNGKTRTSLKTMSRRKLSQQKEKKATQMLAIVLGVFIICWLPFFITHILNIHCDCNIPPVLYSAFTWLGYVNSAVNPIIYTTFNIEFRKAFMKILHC
T1 sequence (P18901 whole entry): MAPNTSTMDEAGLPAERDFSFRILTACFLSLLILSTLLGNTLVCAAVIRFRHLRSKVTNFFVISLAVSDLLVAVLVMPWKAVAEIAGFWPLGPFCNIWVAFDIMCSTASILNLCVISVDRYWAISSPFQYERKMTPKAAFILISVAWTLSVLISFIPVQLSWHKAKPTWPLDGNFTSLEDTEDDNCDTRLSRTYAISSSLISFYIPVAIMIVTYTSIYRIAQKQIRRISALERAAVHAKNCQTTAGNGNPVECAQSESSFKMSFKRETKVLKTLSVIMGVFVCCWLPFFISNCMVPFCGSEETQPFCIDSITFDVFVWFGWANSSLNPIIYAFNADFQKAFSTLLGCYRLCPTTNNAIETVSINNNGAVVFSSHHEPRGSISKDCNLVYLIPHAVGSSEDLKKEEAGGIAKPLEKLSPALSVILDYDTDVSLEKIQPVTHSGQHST

Take `CCCCC(=O)Oc1cc2c(cc1Cl)CCN(C)C1CCCC21` (centres unmarked): the Ki on dopamine D-1 receptor (setting [1]) was determined as 24 nM; at D-2 receptor (setting [2]) it was 177 nM.

`Cc1ccc(NC(=O)Oc2cc3c(cc2Cl)CCN(C)[C@@H]2CCC[C@@H]32)c(C)c1` (relative stereo): the results for the Ki at dopamine D-1 receptor and on D-2 receptor were 7.7 nM and 428 nM, respectively. For the same compound, in the experiment on squirrel monkey (1 h), the minimal effective dose is > 3 mg/kg.

As to `CC(C)c1ccc(NC(=O)Oc2cc3c(cc2Cl)CCN(C)[C@@H]2CCC[C@@H]32)cc1` (relative stereo), the Ki at dopamine D-1 receptor stood at 5.4 nM; at D-2 receptor it was 430 nM.

On to `Cc1cc2c(cc1O)[C@H]1[C@@H](CC[C@@H]1C)N(C)CC2` (relative stereo), for which the Ki on dopamine D-1 receptor (setting [1]) was determined as 14 nM; on D-2 receptor (setting [2]), 840 nM. Besides, the minimal effective dose with squirrel monkey (setting [3]) is 3 mg/kg.

On to `C[C@H]1CC[C@@H]2[C@@H]1c1cc(O)c(Cl)cc1CCN2C` (relative stereo), for which the values for the Ki on dopamine D-1 receptor (setting [1]) and on D-2 receptor (setting [2]) were 3 nM and 350 nM, respectively. Further, the minimal effective dose in the experiment with squirrel monkey (setting [3]) was > 10 mg/kg.

As for `CN1CCc2cc(Cl)c(O)cc2[C@@H]2CCC[C@H]21` (relative stereo), the figures for the Ki on dopamine D-1 receptor (setting [1]) and on D-2 receptor (setting [2]) were 2.8 nM and 380 nM, respectively. The minimal effective dose in the experiment on squirrel monkey (setting [3]) was > 10 mg/kg.

On to `CN1CCc2ccc(O)cc2[C@@H]2CCC[C@H]21` (relative stereo), for which the values for the Ki at dopamine D-1 receptor (setting [1]) and on D-2 receptor (setting [2]) were 335 nM and 2320 nM, respectively.

`C[C@H]1CC[C@@H]2[C@@H](C1)c1cc(O)c(Cl)cc1CCN2C` (relative stereo): the Ki is 70 nM on dopamine D-1 receptor (setting [1]) and > 10000 nM at D-2 receptor (setting [2]). Besides, in the experiment with squirrel monkey (setting [3]), the minimal effective dose is > 10 mg/kg.

For `Cc1cc2c(cc1O)[C@@H]1CCCC[C@H]1N(C)CC2` (relative stereo), the Ki on dopamine D-1 receptor (setting [1]) was 70 nM; on D-2 receptor (setting [2]), 71000 nM. In the experiment with squirrel monkey (setting [3]), the minimal effective dose was > 10 mg/kg.

As to `Oc1cc2c(cc1Cl)CCN[C@@H]1CCC[C@@H]21` (relative stereo), the Ki at dopamine D-1 receptor (setting [1]) came to 96 nM; on D-2 receptor (setting [2]), 1300 nM.

One may read the Ki as a dissociation constant, usually derived from enzyme kinetics or from competition with a known ligand.
